Data: patent US9693556B2, “Herbicidal pyridazinone derivatives” (SYNGENTA LIMITED, priority 2011, dated 2017)

Legend:
Assay type in all cases: in vivo
[1] = system: Amaranthus retoflexus (AMARE); experiment: Pre-emergence herbicidal glasshouse test on Amaranthus retoflexus; conditions: pre-emergence; 1000 g/h; evaluated after 13 days
Summary of the method: (§1)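 Scored on a five-point scale (1 = 0-19% to 5 = 80-100% damage) 13 days after treatment. Application rate 1000 g/h in acetone/water (50:50) containing 0.5% Tween 20, sprayed one day post-sowing for pre-emergence or eight days for post-emergence; glasshouse at 24/16° C, 14 h light, 65% humidity.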

[2] = system: Echinochloa crus-galli (ECHCG); experiment: Pre-emergence herbicidal glasshouse test on Echinochloa crus-galli; conditions: pre-emergence; 1000 g/h; evaluated after 13 days
Summary of the method: as §1

[3] = system: Ipomoea hederacea (IPOHE); experiment: Pre-emergence herbicidal glasshouse test on Ipomoea hederacea; conditions: pre-emergence; 1000 g/h; evaluated after 13 days
Summary of the method: as §1

[4] = system: Alopecurus myosuroides (ALOMY); experiment: Pre-emergence herbicidal glasshouse test on Alopecurus myosuroides; conditions: pre-emergence; 1000 g/h; evaluated after 13 days
Summary of the method: as §1

[5] = system: Alopecurus myosuroides (ALOMY); experiment: Post-emergence herbicidal glasshouse test on Alopecurus myosuroides; conditions: post-emergence; 1000 g/h; evaluated after 13 days
Summary of the method: as §1

[6] = system: Solanum nigrum (SOLNI); experiment: Post-emergence herbicidal glasshouse test on Solanum nigrum; conditions: post-emergence; 1000 g/h; evaluated after 13 days
Summary of the method: as §1

[7] = system: Setaria faberi (SETFA); experiment: Pre-emergence herbicidal glasshouse test on Setaria faberi; conditions: pre-emergence; 1000 g/h; evaluated after 13 days
Summary of the method: as §1

[8] = system: Solanum nigrum (SOLNI); experiment: Pre-emergence herbicidal glasshouse test on Solanum nigrum; conditions: pre-emergence; 1000 g/h; evaluated after 13 days
Summary of the method: as §1

[9] = system: Amaranthus retoflexus (AMARE); experiment: Post-emergence herbicidal glasshouse test on Amaranthus retoflexus; conditions: post-emergence; 1000 g/h; evaluated after 13 days
Summary of the method: as §1

[10] = system: Ipomoea hederacea (IPOHE); experiment: Post-emergence herbicidal glasshouse test on Ipomoea hederacea; conditions: post-emergence; 1000 g/h; evaluated after 13 days
Summary of the method: as §1

[11] = system: Setaria faberi (SETFA); experiment: Post-emergence herbicidal glasshouse test on Setaria faberi; conditions: post-emergence; 1000 g/h; evaluated after 13 days
Summary of the method: as §1

[12] = system: Echinochloa crus-galli (ECHCG); experiment: Post-emergence herbicidal glasshouse test on Echinochloa crus-galli; conditions: post-emergence; 1000 g/h; evaluated after 13 days
Summary of the method: as §1

Which results are given for `CCCCS(=O)(=O)c1ccccc1-c1cnn(C)c(=O)c1O` [Compound 1.051]?
PRE Application AMARE herbicidal damage (five point scale) [1]: 5 (5=80-100% damage); PRE Application ECHCG herbicidal damage (five point scale) [2]: 4 (4=60-79% damage); PRE Application IPOHE herbicidal damage (five point scale) [3]: 1 (1=0-19% damage); PRE Application ALOMY herbicidal damage (five point scale) [4]: 2 (2=20-39% damage); POST Application ALOMY herbicidal damage (five point scale) [5]: 1 (1=0-19% damage); POST Application SOLNI herbicidal damage (five point scale) [6]: 5 (5=80-100% damage); PRE Application SETFA herbicidal damage (five point scale) [7]: 1 (1=0-19% damage); PRE Application SOLNI herbicidal damage (five point scale) [8]: 1 (1=0-19% damage); POST Application AMARE herbicidal damage (five point scale) [9]: 5 (5=80-100% damage); POST Application IPOHE herbicidal damage (five point scale) [10]: 4 (4=60-79% damage); POST Application SETFA herbicidal damage (five point scale) [11]: 2 (2=20-39% damage); POST Application ECHCG herbicidal damage (five point scale) [12]: 2 (2=20-39% damage)

How did the “PRE Application AMARE herbicidal damage (five point scale)” value (“PRE Application AMARE herbicidal damage” below) [1] turn out when `Cn1ncc(-n2ccc(C(F)(F)F)c(-c3ccccc3C(F)(F)F)c2=O)c(O)c1=O` [Compound 1.052] was run?
The value was 5 (5=80-100% damage).

What about the “PRE Application ECHCG herbicidal damage (five point scale)” value (“PRE Application ECHCG herbicidal damage” for short) [2] of the same compound?
Its value is 5 (5=80-100% damage).

And the “PRE Application IPOHE herbicidal damage (five point scale)” value (from here on “PRE Application IPOHE herbicidal damage”) [3]?
The value was 1 (1=0-19% damage).

What about the “PRE Application ALOMY herbicidal damage (five point scale)” value (from here on “PRE Application ALOMY herbicidal damage”) [4] of the same compound?
The value was 4 (4=60-79% damage).

What about the “POST Application ALOMY herbicidal damage (five point scale)” value (from here on “POST Application ALOMY herbicidal damage”) [5] of the same compound?
Its value is 4 (4=60-79% damage).

And the “POST Application SOLNI herbicidal damage (five point scale)” value (shortened to “POST Application SOLNI herbicidal damage”) [6]?
Its value is 5 (5=80-100% damage).

And the “PRE Application SETFA herbicidal damage (five point scale)” value (“PRE Application SETFA herbicidal damage” below) [7]?
The value was 4 (4=60-79% damage).

And the “PRE Application SOLNI herbicidal damage (five point scale)” value (“PRE Application SOLNI herbicidal damage” for short) [8]?
Its value is 5 (5=80-100% damage).

What about the “POST Application AMARE herbicidal damage (five point scale)” value (from here on “POST Application AMARE herbicidal damage”) [9] of the same compound?
The value was 5 (5=80-100% damage).

And the “POST Application IPOHE herbicidal damage (five point scale)” value (shortened to “POST Application IPOHE herbicidal damage”) [10]?
Its value is 5 (5=80-100% damage).

And the “POST Application SETFA herbicidal damage (five point scale)” value (“POST Application SETFA herbicidal damage” below) [11]?
The value was 5 (5=80-100% damage).

What about the “POST Application ECHCG herbicidal damage (five point scale)” value (from here on “POST Application ECHCG herbicidal damage”) [12] of the same compound?
Its value is 5 (5=80-100% damage).

Which results are given for `Cc1ccccc1-c1c(C(F)(F)F)ccn(-c2cnn(C)c(=O)c2O)c1=O` [Compound 1.053]?
PRE Application AMARE herbicidal damage (five point scale) [1]: 5 (5=80-100% damage); PRE Application ECHCG herbicidal damage (five point scale) [2]: 5 (5=80-100% damage); PRE Application IPOHE herbicidal damage (five point scale) [3]: 2 (2=20-39% damage); PRE Application ALOMY herbicidal damage (five point scale) [4]: 5 (5=80-100% damage); POST Application ALOMY herbicidal damage (five point scale) [5]: 5 (5=80-100% damage); POST Application SOLNI herbicidal damage (five point scale) [6]: 5 (5=80-100% damage); PRE Application SETFA herbicidal damage (five point scale) [7]: 4 (4=60-79% damage); PRE Application SOLNI herbicidal damage (five point scale) [8]: 5 (5=80-100% damage); POST Application AMARE herbicidal damage (five point scale) [9]: 5 (5=80-100% damage); POST Application IPOHE herbicidal damage (five point scale) [10]: 5 (5=80-100% damage); POST Application SETFA herbicidal damage (five point scale) [11]: 4 (4=60-79% damage); POST Application ECHCG herbicidal damage (five point scale) [12]: 5 (5=80-100% damage)

Which “PRE Application AMARE herbicidal damage” value [1] does the source give for `Cn1ncc(-n2ccc(C(F)(F)F)c(-c3ccccc3)c2=O)c(O)c1=O` [Compound 1.054] here?
Its value is 5 (5=80-100% damage).

And the “PRE Application ECHCG herbicidal damage” value [2]?
Its value is 5 (5=80-100% damage).

What about the “PRE Application IPOHE herbicidal damage” value [3] of the same compound?
The value was 3 (3=40-59% damage).

And the “PRE Application ALOMY herbicidal damage” value [4]?
Its value is 5 (5=80-100% damage).

And the “POST Application ALOMY herbicidal damage” value [5]?
The value was 5 (5=80-100% damage).

What about the “POST Application SOLNI herbicidal damage” value [6] of the same compound?
Its value is 5 (5=80-100% damage).

And the “PRE Application SETFA herbicidal damage” value [7]?
The value was 5 (5=80-100% damage).

And the “PRE Application SOLNI herbicidal damage” value [8]?
The value was 5 (5=80-100% damage).

And the “POST Application AMARE herbicidal damage” value [9]?
The value was 5 (5=80-100% damage).

What about the “POST Application IPOHE herbicidal damage” value [10] of the same compound?
The value was 4 (4=60-79% damage).

And the “POST Application SETFA herbicidal damage” value [11]?
Its value is 5 (5=80-100% damage).

And the “POST Application ECHCG herbicidal damage” value [12]?
Its value is 5 (5=80-100% damage).

With `Cn1ncc(-c2ccccc2[S+]([O-])C(F)(F)F)c(O)c1=O` (stereo not drawn) [Compound 1.055] as the compound, how does the “PRE Application AMARE herbicidal damage” value [1] read?
Its value is 5 (5=80-100% damage).

And the “PRE Application ECHCG herbicidal damage” value [2]?
Its value is 2 (2=20-39% damage).

What about the “PRE Application IPOHE herbicidal damage” value [3] of the same compound?
Its value is 2 (2=20-39% damage).

What about the “PRE Application ALOMY herbicidal damage” value [4] of the same compound?
The value was 1 (1=0-19% damage).

What about the “POST Application ALOMY herbicidal damage” value [5] of the same compound?
Its value is 1 (1=0-19% damage).

And the “POST Application SOLNI herbicidal damage” value [6]?
Its value is 5 (5=80-100% damage).

What about the “PRE Application SETFA herbicidal damage” value [7] of the same compound?
The value was 1 (1=0-19% damage).

And the “PRE Application SOLNI herbicidal damage” value [8]?
The value was 4 (4=60-79% damage).

What about the “POST Application AMARE herbicidal damage” value [9] of the same compound?
The value was 5 (5=80-100% damage).

What about the “POST Application IPOHE herbicidal damage” value [10] of the same compound?
Its value is 4 (4=60-79% damage).

And the “POST Application SETFA herbicidal damage” value [11]?
Its value is 1 (1=0-19% damage).

What about the “POST Application ECHCG herbicidal damage” value [12] of the same compound?
The value was 4 (4=60-79% damage).
